ChEMBL document CHEMBL5724806, “Unraveling interindividual differences and functional consequences of gut microbial metabolism of immunosuppressants” (2024)

Key:
Format in all cases: ADME
[1] = The drug is tested on Alloscardovia omnicolens strain: DSM21503 for biotransformation under anaerobic condition. The drug concentrations were measured over 6 timepoints collected between 0 and 12 hours of incubation by liquid-chromatography-coupled mass spectrometry (LC–MS); parameters: dose 5 uM, timepoint 0, 1.5, 3, 6, 9, 12 hours; conditions: 5 µM
[2] = The drug is tested on Bifidobacterium longum strain: DSM20088 for biotransformation under anaerobic condition. The drug concentrations were measured over 6 timepoints collected between 0 and 12 hours of incubation by liquid-chromatography-coupled mass spectrometry (LC–MS); parameters: dose 5 uM, timepoint 0, 1.5, 3, 6, 9, 12 hours; conditions: 5 µM
[3] = The drug is tested on Bacteroides fragilis strain: DSM2151 for biotransformation under anaerobic condition. The drug concentrations were measured over 6 timepoints collected between 0 and 12 hours of incubation by liquid-chromatography-coupled mass spectrometry (LC–MS); parameters: dose 5 uM, timepoint 0, 1.5, 3, 6, 9, 12 hours; conditions: 5 µM
[4] = The drug is tested on Bacteroides ovatus strain: ATCC 8483 for biotransformation under anaerobic condition. The drug concentrations were measured over 6 timepoints collected between 0 and 12 hours of incubation by liquid-chromatography-coupled mass spectrometry (LC–MS); parameters: dose 5 uM, timepoint 0, 1.5, 3, 6, 9, 12 hours; conditions: 5 µM
[5] = The drug is tested on Bacteroides uniformis strain: DSM6597 for biotransformation under anaerobic condition. The drug concentrations were measured over 6 timepoints collected between 0 and 12 hours of incubation by liquid-chromatography-coupled mass spectrometry (LC–MS); parameters: dose 5 uM, timepoint 0, 1.5, 3, 6, 9, 12 hours; conditions: 5 µM
[6] = The drug is tested on Bacteroides vulgatus strain: DSM1447 for biotransformation under anaerobic condition. The drug concentrations were measured over 6 timepoints collected between 0 and 12 hours of incubation by liquid-chromatography-coupled mass spectrometry (LC–MS); parameters: dose 5 uM, timepoint 0, 1.5, 3, 6, 9, 12 hours; conditions: phocaeicola vulgatus, 5 µM
[7] = The drug is tested on Odoribacter splanchnicus strain: DSM20712 for biotransformation under anaerobic condition. The drug concentrations were measured over 6 timepoints collected between 0 and 12 hours of incubation by liquid-chromatography-coupled mass spectrometry (LC–MS); parameters: dose 5 uM, timepoint 0, 1.5, 3, 6, 9, 12 hours; conditions: 5 µM
[8] = The drug is tested on Coprococcus comes strain: ATCC27758 for biotransformation under anaerobic condition. The drug concentrations were measured over 6 timepoints collected between 0 and 12 hours of incubation by liquid-chromatography-coupled mass spectrometry (LC–MS); parameters: dose 5 uM, timepoint 0, 1.5, 3, 6, 9, 12 hours; conditions: 5 µM
[9] = The drug is tested on Eubacterium eligens strain: DSM3376 for biotransformation under anaerobic condition. The drug concentrations were measured over 6 timepoints collected between 0 and 12 hours of incubation by liquid-chromatography-coupled mass spectrometry (LC–MS); parameters: dose 5 uM, timepoint 0, 1.5, 3, 6, 9, 12 hours; conditions: lachnospira eligens, 5 µM
[10] = The drug is tested on Eubacterium hallii strain: DSM3353 for biotransformation under anaerobic condition. The drug concentrations were measured over 6 timepoints collected between 0 and 12 hours of incubation by liquid-chromatography-coupled mass spectrometry (LC–MS); parameters: dose 5 uM, timepoint 0, 1.5, 3, 6, 9, 12 hours; conditions: anaerobutyricum hallii, 5 µM
[11] = The drug is tested on Eubacterium rectale strain: DSM17629 for biotransformation under anaerobic condition. The drug concentrations were measured over 6 timepoints collected between 0 and 12 hours of incubation by liquid-chromatography-coupled mass spectrometry (LC–MS); parameters: dose 5 uM, timepoint 0, 1.5, 3, 6, 9, 12 hours; conditions: agathobacter rectalis, 5 µM
[12] = The drug is tested on Lactobacillus ruminis strain: ATCC25644 for biotransformation under anaerobic condition. The drug concentrations were measured over 6 timepoints collected between 0 and 12 hours of incubation by liquid-chromatography-coupled mass spectrometry (LC–MS); parameters: dose 5 uM, timepoint 0, 1.5, 3, 6, 9, 12 hours; conditions: ligilactobacillus ruminis, 5 µM
[13] = The drug is tested on Enterococcus faecalis strain: ATCC29212 for biotransformation under anaerobic condition. The drug concentrations were measured over 6 timepoints collected between 0 and 12 hours of incubation by liquid-chromatography-coupled mass spectrometry (LC–MS); parameters: dose 5 uM, timepoint 0, 1.5, 3, 6, 9, 12 hours; conditions: 5 µM
[14] = The drug is tested on Alloscardovia omnicolens strain: DSM21503 for biotransformation under microaerobic condition. The drug concentrations were measured over 6 timepoints collected between 0 and 12 hours of incubation by liquid-chromatography-coupled mass spectrometry (LC–MS); parameters: dose 5 uM, timepoint 0, 1.5, 3, 6, 9, 12 hours; conditions: 5 µM
[15] = The drug is tested on Lactobacillus ruminis strain: ATCC25644 for biotransformation under microaerobic condition. The drug concentrations were measured over 6 timepoints collected between 0 and 12 hours of incubation by liquid-chromatography-coupled mass spectrometry (LC–MS); parameters: dose 5 uM, timepoint 0, 1.5, 3, 6, 9, 12 hours; conditions: ligilactobacillus ruminis, 5 µM
[16] = The drug is tested on Enterococcus faecalis strain: ATCC29212 for biotransformation under microaerobic condition. The drug concentrations were measured over 6 timepoints collected between 0 and 12 hours of incubation by liquid-chromatography-coupled mass spectrometry (LC–MS); parameters: dose 5 uM, timepoint 0, 1.5, 3, 6, 9, 12 hours; conditions: 5 µM
[17] = The drug is tested on the gut metagenome community of A-08 with ENA study accession number: PRJEB31790 for biotransformation under anaerobic condition. The drug concentrations were measured over 7 timepoints collected between 0 and 12 hours of incubation by liquid-chromatography-coupled mass spectrometry (LC–MS); parameters: dose 5 uM, timepoint 0, 0.75, 1.5, 3, 6, 9, 12 hours; conditions: 5 µM
[18] = The drug is tested on the gut metagenome community of P-02 with ENA study accession number: PRJEB31790 for biotransformation under anaerobic condition. The drug concentrations were measured over 7 timepoints collected between 0 and 12 hours of incubation by liquid-chromatography-coupled mass spectrometry (LC–MS); parameters: dose 5 uM, timepoint 0, 0.75, 1.5, 3, 6, 9, 12 hours; conditions: 5 µM
[19] = The drug is tested on the gut metagenome community of P-03 with ENA study accession number: PRJEB31790 for biotransformation under anaerobic condition. The drug concentrations were measured over 7 timepoints collected between 0 and 12 hours of incubation by liquid-chromatography-coupled mass spectrometry (LC–MS); parameters: dose 5 uM, timepoint 0, 0.75, 1.5, 3, 6, 9, 12 hours; conditions: 5 µM
[20] = The drug is tested on the gut metagenome community of T-05 with ENA study accession number: PRJEB31790 for biotransformation under anaerobic condition. The drug concentrations were measured over 7 timepoints collected between 0 and 12 hours of incubation by liquid-chromatography-coupled mass spectrometry (LC–MS); parameters: dose 5 uM, timepoint 0, 0.75, 1.5, 3, 6, 9, 12 hours; conditions: 5 µM
[21] = The drug is tested on the gut metagenome community of A-03 with ENA study accession number: PRJEB31790 for biotransformation under microaerobic condition. The drug concentrations were measured over 7 timepoints collected between 0 and 12 hours of incubation by liquid-chromatography-coupled mass spectrometry (LC–MS); parameters: dose 5 uM, timepoint 0, 0.75, 1.5, 3, 6, 9, 12 hours; conditions: 5 µM
[22] = The drug is tested on the gut metagenome community of A-06 with ENA study accession number: PRJEB31790 for biotransformation under microaerobic condition. The drug concentrations were measured over 7 timepoints collected between 0 and 12 hours of incubation by liquid-chromatography-coupled mass spectrometry (LC–MS); parameters: dose 5 uM, timepoint 0, 0.75, 1.5, 3, 6, 9, 12 hours; conditions: 5 µM
[23] = The drug is tested on the gut metagenome community of A-08 with ENA study accession number: PRJEB31790 for biotransformation under microaerobic condition. The drug concentrations were measured over 7 timepoints collected between 0 and 12 hours of incubation by liquid-chromatography-coupled mass spectrometry (LC–MS); parameters: dose 5 uM, timepoint 0, 0.75, 1.5, 3, 6, 9, 12 hours; conditions: 5 µM
[24] = The drug is tested on the gut metagenome community of T-05 with ENA study accession number: PRJEB31790 for biotransformation under microaerobic condition. The drug concentrations were measured over 7 timepoints collected between 0 and 12 hours of incubation by liquid-chromatography-coupled mass spectrometry (LC–MS); parameters: dose 5 uM, timepoint 0, 0.75, 1.5, 3, 6, 9, 12 hours; conditions: 5 µM

Measured: Bacterial Biotransformation

CCOc1nc2cccc(C(=O)O)c2n1Cc1ccc(-c2ccccc2-c2nnn[nH]2)cc1
Compound NOT metabolized: all assays above

C[C@@H](NCCCc1cccc(C(F)(F)F)c1)c1cccc2ccccc12
Compound NOT metabolized: all assays above
